According to patent US20180057505A1, “BICYCLIC HETEROARYL COMPOUNDS USEFUL AS INHIBITORS OF THE PAR-2 SIGNALING PATHWAY” (VERTEX PHARMACEUTICALS INCORPORATED, priority 2015, published 2018):

What was measured:
Assay type in all cases: cell-based
[1] = target: T1, PAR2 (HT-29 cells) (Homo sapiens, UniProt P55085); assay: Ca FLIPR TETRA assay, ANTAGONIST mode, activator 3.1 U/mL trypsin; settings: HT-29 cells; activator 3.1 U/mL trypsin; Method A: maximal concentration of antagonist 0.1, 1 or 2 μM
T1 construct: host or cells: HT-29
T1 sequence (P55085 26-397): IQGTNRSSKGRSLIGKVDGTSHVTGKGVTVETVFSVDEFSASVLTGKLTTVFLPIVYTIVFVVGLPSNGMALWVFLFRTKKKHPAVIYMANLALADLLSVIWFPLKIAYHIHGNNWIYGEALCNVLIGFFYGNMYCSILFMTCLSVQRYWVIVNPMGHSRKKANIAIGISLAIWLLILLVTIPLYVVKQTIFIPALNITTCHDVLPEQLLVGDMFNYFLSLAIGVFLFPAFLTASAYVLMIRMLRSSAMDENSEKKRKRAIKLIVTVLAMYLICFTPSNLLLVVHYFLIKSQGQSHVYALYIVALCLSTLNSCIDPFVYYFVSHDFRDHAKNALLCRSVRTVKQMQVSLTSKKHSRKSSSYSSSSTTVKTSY
Summary of the method: (§1)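 HT-29 cells in 1% FBS/McCoy's overnight, loaded with FLIPR Calcium 5 dye (45 min 37 °C, 15 min r.t.); compounds added and read for intrinsic Ca2+ activation, then after 30 min r.t. stimulated with fixed activator: 8 μM SLIGKV, 0.6 μM UTP, 1 U/mL thrombin or 3.1 U/mL trypsin (final).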

[2] = tested on: UTP-stimulated Ca2+ response in HT-29 cells; assay: Ca FLIPR TETRA assay, ANTAGONIST mode, activator 0.6 μM UTP; settings: Homo sapiens; HT-29 cells, activator 0.6 μM UTP
Summary of the method: as §1

[3] = tested on: Thrombin-stimulated Ca2+ response in HT-29 cells; assay: Ca FLIPR TETRA assay, ANTAGONIST mode, activator 1 U/mL Thrombin; settings: Homo sapiens; HT-29 cells, activator 1 U/mL Thrombin
Summary of the method: as §1

[4] = target: T1, PAR2 (HT-29 cells); assay: Ca FLIPR TETRA assay, ANTAGONIST mode, activator 8 μM SLIGKV; settings: HT-29 cells; activator 8 μM SLIGKV; Method A: maximal concentration of antagonist 0.1, 1 or 2 μM
Summary of the method: as §1

IC50 [1] [nM] | IC50 [2] [nM] | IC50 [3] [nM] | IC50 [4] [nM] | SMILES
420 | > 2000 | > 2000 | 320 | CC(C)(C)c1cc(N2CCC(C#N)CC2)nc2cc(C(=O)N3CCN(C(=O)[C@H]4C[C@](C)(O)C4)CC3(C)C)oc12 [Example I-438]
96 | > 2000 | > 2000 | 78 | CC1(O)CC(C(=O)N2CCN(C(=O)c3cc4nc(N5CCC(F)(F)C5)cc(C(C)(C)C)c4o3)C(C)(C)C2)C1 (stereo not shown) [Example I-439]
640 | > 2000 | > 2000 | 520 | CC(C)(C)c1cc(N2CCC[C@@H]2C(F)(F)F)nc2cc(C(=O)N3CCN(C(=O)[C@H]4C[C@](C)(O)C4)CC3(C)C)oc12 [Example I-440]
130 | > 2000 | > 2000 | 76 | CC(C)(C)c1cc(N2CC3(C2)CC(F)(F)C3)nc2cc(C(=O)N3CCN(C(=O)[C@H]4C[C@](C)(O)C4)CC3(C)C)oc12 [Example I-441]
> 2000 | > 2000 | > 2000 | > 2000 | CC(C)(C)c1cc(N2CCC(C(C)(C)O)CC2)nc2cc(C(=O)N3CCN(C(=O)[C@H]4C[C@](C)(O)C4)CC3(C)C)oc12 [Example I-442]
0.6 | 1600 | > 2000 | 0.5 | CC(C)(C)c1cc(C2CC3(CCC3)C2)nc2cc(C(=O)N3CCN(c4ccc(C(=O)O)cn4)CC3(C)C)oc12 [Example I-443]
76 | > 2000 | > 2000 | 65 | CC(C)(C)c1cc(C2CC3(CCC3)C2)nc2cc(C(=O)N3CCN(C(=O)[C@@H]4CNCCO4)CC3(C)C)oc12 [Example I-444]
260 | > 2000 | > 2000 | 260 | CC(C)(C)c1cc(C2CC3(CCC3)C2)nc2cc(C(=O)N3CCN(C(=O)[C@H]4CNCCO4)CC3(C)C)oc12 [Example I-445]
130 | > 2000 | > 2000 | 106 | CC(C)(C)c1cc(C2CC3(CCC3)C2)nc2cc(C(=O)N3CCN(C(=O)[C@H]4COCCN4)CC3(C)C)oc12 [Example I-446]
590 | > 2000 | > 2000 | 460 | CC(C)(C)c1cc(C2CC3(CCC3)C2)nc2cc(C(=O)N3CCN(C(=O)[C@@H]4COCCN4)CC3(C)C)oc12 [Example I-447]
0.8 | > 1010 | > 1010 | 0.4 | CC1(C)CCC(c2cc(C(C)(C)C)c3oc(C(=O)N4CCN(c5nc(C(=O)O)co5)CC4(C)C)cc3n2)CC1 [Example I-450]
5.9 | > 2000 | > 2000 | 6.7 | CC1(C)CCC(c2cc(C(C)(C)C)c3oc(C(=O)N4CCN(c5cnc(C(=O)O)cn5)CC4(C)C)cc3n2)CC1 [Example I-451]
6.6 | > 2000 | > 2000 | 8.9 | CC(C)(C)c1cc(-c2ccc(Cl)cc2)nc2cc(C(=O)N3CCN(c4cnc(C(=O)O)cn4)CC3(C)C)oc12 [Example I-452]
660 | > 2000 | > 2000 | 450 | CC(C)(C)c1cc(-c2ccc(F)cc2)nc2cc(C(=O)N3CCN(N4CCC(=O)NCC4(C)C)CC3(C)C)oc12 [Example I-453]
67 | > 2000 | > 2000 | 41 | CC(C)(C)c1cc(-c2ccc(F)cc2)nc2cc(C(=O)N3CCN(N4CCNC(=O)CC4(C)C)CC3(C)C)oc12 [Example I-454]
2.4 | 415 | 450 | 1.2 | CC1(C)CCC(c2cc(C(C)(C)C)c3oc(C(=O)N4CCN(c5nccc(C(=O)O)n5)CC4(C)C)cc3n2)CC1 [Example I-455]
4.2 | > 2000 | > 2000 | 3.2 | CC(C)(C)c1cc(-c2ccc(Cl)c(F)c2)nc2cc(C(=O)N3CCN(c4cnc(C(=O)O)cn4)CC3(C)C)oc12 [Example I-456]
0.9 | 1500 | 1900 | 0.8 | CC(C)(C)c1cc(-c2ccc(Cl)cc2)nc2cc(C(=O)N3CCN(c4nccc(C(=O)O)n4)CC3(C)C)oc12 [Example I-457]
18 | 1190 | 1150 | 8.7 | CC1(C)CCC(c2cc(C(C)(C)C)c3oc(C(=O)N4CCN(c5cccc(C(=O)O)n5)C(=O)C4(C)C)cc3n2)CC1 [Example I-458]

IC50 [1] [nM] | IC50 [2] [nM] | IC50 [3] [nM] | IC50 [4] [nM] | SMILES
1.3 | 660 | 350 | 1.8 | CC(C)(C)c1cc(-c2ccc(Cl)c(F)c2)nc2cc(C(=O)N3CCN(c4cccc(C(=O)O)n4)C(=O)C3(C)C)oc12 [Example I-459]
14 | 1870 | 1730 | 10.6 | CC(C)(C)c1cc(-c2ccc(Cl)cc2)nc2cc(C(=O)N3CCN(c4cccc(C(=O)O)n4)C(=O)C3(C)C)oc12 [Example I-460]
0.5 | 560 | 660 | 0.4 | CC(C)(C)c1cc(-c2ccc(Cl)c(F)c2)nc2cc(C(=O)N3CCN(c4nccc(C(=O)O)n4)CC3(C)C)oc12 [Example I-461]
0.8 | 1250 | 1600 | 0.6 | Cc1nc(N2CCN(C(=O)c3cc4nc(-c5ccc(Cl)cc5)cc(C(C)(C)C)c4o3)C(C)(C)C2)ncc1C(=O)O [Example I-462]
0.9 | 860 | 1010 | 0.7 | CC(C)(C)c1cc(-c2ccc(Cl)cc2)nc2cc(C(=O)N3CCN(c4cncc(C(=O)O)n4)CC3(C)C)oc12 [Example I-463]
0.9 | 610 | 810 | 0.5 | CC1(C)CCC(c2cc(C(C)(C)C)c3oc(C(=O)N4CCN(c5cncc(C(=O)O)n5)CC4(C)C)cc3n2)CC1 [Example I-464]
1.2 | 960 | > 1010 | 0.5 | Cc1nc(N2CCN(C(=O)c3cc4nc(C5CCC(C)(C)CC5)cc(C(C)(C)C)c4o3)C(C)(C)C2)ncc1C(=O)O [Example I-465]
0.4 | 995 | 1150 | 0.2 | Cc1nc(N2CCN(C(=O)c3cc4nc(-c5ccc(Cl)c(F)c5)cc(C(C)(C)C)c4o3)C(C)(C)C2)ncc1C(=O)O [Example I-466]
7.7 | > 2000 | > 2000 | 4.3 | CCS(=O)(=O)NCC(=O)N1CCN(C(=O)c2cc3nc(-c4ccc(Cl)cc4)cc(C(C)(C)C)c3o2)C(C)(C)C1 [Example I-467]
4.7 | > 2000 | > 2000 | 2.5 | CCS(=O)(=O)NCC(=O)N1CCN(C(=O)c2cc3nc(-c4ccc(Cl)c(F)c4)cc(C(C)(C)C)c3o2)C(C)(C)C1 [Example I-468]
0.6 | > 2000 | > 2000 | 0.3 | CC(C)(C)c1cc(-c2ccc(Cl)c(F)c2)nc2cc(C(=O)N3CCN(c4cncc(C(=O)O)n4)CC3(C)C)oc12 [Example I-469]
6.2 | > 2000 | > 2000 | 5.7 | CC(C)(C)c1cc(-c2ccc(Cl)c(F)c2)nc2cc(C(=O)N3CCN(c4nccnc4C(=O)O)CC3(C)C)oc12 [Example I-470]
1.4 | > 2000 | > 2000 | 1.1 | CC(C)(C)c1cc(-c2ccc(Cl)cc2)nc2cc(C(=O)N3CCN(c4ccc(C(=O)O)nn4)CC3(C)C)oc12 [Example I-471]
20 | > 2000 | > 2000 | 33.9 | CC(C)(C)c1cc(-c2ccc(Cl)c(F)c2)nc2cc(C(=O)N3CCN(C(=O)[C@@H]4CCS(=O)(=O)N4)CC3(C)C)oc12 [Example I-472]
27.7 | > 2000 | > 2000 | 18 | CC(C)(C)c1cc(-c2ccc(Cl)c(F)c2)nc2cc(C(=O)N3CCN(C(=O)[C@H]4CCS(=O)(=O)N4)CC3(C)C)oc12 [Example I-473]
53 | > 2000 | > 2000 | 39 | CC(C)(C)c1cc(-c2ccc(Cl)cc2)nc2cc(C(=O)N3CCN(C(=O)[C@@H]4CCS(=O)(=O)N4)CC3(C)C)oc12 [Example I-474]
34 | > 2000 | > 2000 | 26 | CC(C)(C)c1cc(-c2ccc(Cl)cc2)nc2cc(C(=O)N3CCN(C(=O)[C@H]4CCS(=O)(=O)N4)CC3(C)C)oc12 [Example I-475]
1.6 | > 500 | > 500 | 0.7 | Cc1nc(N2CCN(C(=O)c3cc4nc(-c5ccc(Cl)c(F)c5)cc(C(C)(C)C)c4o3)C(C)(C)C2)oc1C(=O)O [Example I-476]
